Experiments:
CYP17A1 [1] = molecular target: T1, CYP17A1 (Homo sapiens, UniProt P05093); assay: CYP17A1 17α-hydroxylase activity assay in NCI-H295R cells ([14C]-progesterone, TLC); type: cell-based; conditions: 4 h, DMSO = 100, read-out: CYP17A1 Hydroxylase activity, Mean (percentage of activity remaining relative to the control)
T1 construct: immortalised human adrenal cells expressing CYP17A1 and other steroidogenic enzymes; endogenous in cells; host or cells: NCI-H295R (human adrenal cells)
T1 sequence (P05093 1-508): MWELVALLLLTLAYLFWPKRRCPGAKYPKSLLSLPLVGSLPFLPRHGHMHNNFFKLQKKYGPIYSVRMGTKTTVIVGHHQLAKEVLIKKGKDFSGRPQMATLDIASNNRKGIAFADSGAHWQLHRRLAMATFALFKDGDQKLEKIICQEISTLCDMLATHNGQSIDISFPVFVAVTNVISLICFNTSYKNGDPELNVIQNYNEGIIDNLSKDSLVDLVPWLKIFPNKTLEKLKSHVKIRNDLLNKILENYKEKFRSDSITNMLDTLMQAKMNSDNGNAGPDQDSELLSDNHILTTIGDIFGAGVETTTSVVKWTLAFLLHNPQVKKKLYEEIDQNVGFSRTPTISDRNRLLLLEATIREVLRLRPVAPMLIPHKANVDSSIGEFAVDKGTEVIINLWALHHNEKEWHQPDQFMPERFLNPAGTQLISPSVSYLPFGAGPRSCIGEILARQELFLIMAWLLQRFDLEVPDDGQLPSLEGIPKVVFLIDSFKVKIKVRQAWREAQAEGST
Description: (§1) Human adrenal NCI-H295R cells are an established model for assay of CYP17A1 activities. The NCI-H295R cells were seeded in 12-well plates at 500 000 cells per well and incubated overnight. On the following day, 10 µM of test compounds were added to the wells with fresh medium and incubated for 4 h. Abiraterone was used as a reference, and DMSO was included as a control. For assessing CYP17A1 hydroxylase activity, cells were treated with [^14C]-Progesterone at 10 000 cpm/1 µM per well. Trilostane was added prior to the test compounds and substrate to inhibit 3β-hydroxysteroid dehydrogenase activity so that a clean assay of only CYP17A1 activity could be performed[20]^,[27]^,[28]. Radiolabeled steroids were extracted from the media using a mixture of ethyl acetate and isooctane (1:1 v/v) and separated by Thin Layer Chromatography (TLC) on silica gel-coated aluminium plates (Supelco® Analytics, Sigma-Aldrich Chemie GmbH, Taufkirchen, Germany). TLC spots were visualised on a phosphor screen and detected by autoradiography using a Typhoon™ FLA-7000 PhosphorImager (GE Healthcare, Uppsala, Sweden). Radioactivity was quantified with ImageQuant™ TL analysis software (GE Healthcare Europe GmbH, Freiburg, Germany), and enzyme activity was expressed as the percentage of radioactivity incorporated into the product relative to the total radioactivity. For CYP17A1 lyase activity, cells were exposed to 50 000 cpm/1 µM [21-^3H]-17α-hydroxypregnenolone per well under similar conditions. The tritiated water release assay was used to measure the conversion of 17OH-Pregnenolone to DHEA. Steroids in the media were precipitated using a 5% activated charcoal/0.5% dextran solution. Enzyme activity was evaluated based on the water-soluble tritiated by-product formed in equimolar amounts with DHEA, with radioactivity in the aqueous phase quantified by liquid scintillation counting (MicroBeta2® Plate Counter, PerkinElmer Inc., Waltham, MA, USA). Percent inhibition was calculated relative to control samples.

CYP17A1 [2] = molecular target: T1, CYP17A1; assay: CYP17A1 17,20-lyase activity assay in NCI-H295R cells (tritiated water release); type: cell-based; conditions: 4 h, DMSO = 100, read-out: CYP17A1 Lyase activity, Mean (percentage of activity remaining relative to the control)
Description: as §1

LNCaP cells = assay: Alamar blue (resazurin) cell viability, LNCaP; type: cell-based, human; conditions: 10 µM, 48 h
Description: LNCaP and RWPE-1 cells were plated in 96-well plates at 10 000 cells per well and incubated overnight at 37 °C with 5% CO2. VCaP cells were plated at 12 000 cells per well under the same conditions. After 24 h, the medium was replaced with fresh medium containing the compounds or abiraterone at a final concentration of 10 µM. Cells were incubated for an additional 24 and 48 h. Cell viability was measured using the Alamar Blue assay. Post-incubation, 0.05 mg/mL Alamar Blue solution in phosphate-buffered saline (PBS) was added to each well. The plates were incubated in the dark at 37 °C for 4 h, and fluorescence was measured at an excitation wavelength of 550 nm and an emission wavelength of 590 nm. Cell viability was calculated relative to control sample treated with DMSO. All experiments were conducted in triplicate.

remaining activity at 10 µM (CYP17A1 [1]) [%] | remaining activity at 10 µM (CYP17A1 [2]) [%] | Structure (SMILES) | Effect on LNCaP cell viability (in words) (LNCaP cells)
96 | 113 | N#Cc1c(-c2cccnc2)cc(-c2cccnc2)c(C#N)c1N [Compound 7, 2-Amino-4,6-di(pyridin-3-yl)isophthalonitrile] | 
63 | 66.8 | N#Cc1c(-c2ccncc2)cc(-c2cccnc2)c(C#N)c1N [Compound 9, 2-Amino-4-(pyridin-3-yl)-6-(pyridin-4-yl)isophthalonitrile] | 
84 | 94.7 | N#Cc1c(-c2ccccc2)cc(-c2cccnc2)nc1N [Compound 3, 6-Amino-4-phenyl-[2,3′-bipyridine]-5-carbonitrile] | 
67 | 93.7 | N#Cc1c(-c2ccccc2)cc(-c2ccccc2)nc1N [Compound 2, 2-Amino-4,6-diphenylnicotinonitrile] | 
71 | 68.5 | N#Cc1c(-c2cccnc2)cc(-c2ccccc2)nc1N [Compound 4, 2′-Amino-6′-phenyl-[3,4′-bipyridine]-3′-carbonitrile] | 

The remaining lines, values behind:

Structure (SMILES) | remaining activity at 10 µM (CYP17A1 [1]) [%] | remaining activity at 10 µM (CYP17A1 [2]) [%] | Effect on LNCaP cell viability (in words) (LNCaP cells)
N#Cc1c(-c2ccncc2)cc(-c2ccncc2)c(C#N)c1N [Compound 8, 2-Amino-4,6-di(pyridin-4-yl)isophthalonitrile] | 103 | 84.8 | 
CCCn1nnc2cc(-c3cc(-c4ccncc4)c(C#N)c(N)c3C#N)ccc21 [Compound 10, 2-Amino-4–(1-propyl-1H-benzo[d][1,2,3]triazol-5-yl)-6-(pyridin-4-yl)isophthalonitrile] | 32 | 58.2 | 
c1cncc(-c2ccc(-c3ccc4[nH]ccc4c3)cc2)c1 [Compound 13, 5-(4-(Pyridin-3-yl)phenyl)-1H-indole] | 76 | 93.5 | 
c1cc(-c2ccc(-c3ccc4[nH]ccc4c3)cc2)ccn1 [Compound 15, 5-(4-(Pyridin-4-yl)phenyl)-1H-indole] | 87 | 57.3 | strong effect
